For experiment [1], the system named is erythroid progenitor cells (EPCs). As to the kind of experiment: Fetal hemoglobin (HbF) ELISA in day 7 erythroid progenitor cells.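 Further: for fetal hemoglobin induction normalized to vehicle-treated cells.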 The format is cell-based, human. The conditions noted are these: Homo sapiens, Erythroid progenitor cell, HbF ELISA, day 7 EPCs, 5 days; read-out: EPC ELISA (pEC50 category) (converted). In a few lines:
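HbF induction was read by anti-HbF sandwich ELISA (HRP/TMB, OD450) on lysates and normalized to vehicle-treated cells. Cells were day 7 erythroid progenitors derived from human bone marrow CD34+ cells, seeded at 1,000/well with 3 U/mL rhEPO. Compound was given for 5 days at 37 °C at final concentrations […].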
In general terms: An ELISA detects its analyte on a solid surface through an enzyme-linked reagent.

A further experiment has as its target DNMT1 (Homo sapiens, UniProt P26358). Put plainly: DNMT1 biochemical activity, breaklight assay and/or SPA assay.
Setting [2] is: binned activity in either the breaklight or the SPA assay.
Setting [3] is: binned activity in either the breaklight or the SPA assay, read-out: DNMT1 BioChemical (pIC50 category) (converted).

These results are taken from patent US10975056B2 (GlaxoSmithKline Intellectual Property Development Limited, priority 2016, dated 2021).

The structures appear in SMILES notation. Like-named read-outs stand apart in the source and are kept apart here.

Chain of DNMT1 (P26358 whole entry, looked up): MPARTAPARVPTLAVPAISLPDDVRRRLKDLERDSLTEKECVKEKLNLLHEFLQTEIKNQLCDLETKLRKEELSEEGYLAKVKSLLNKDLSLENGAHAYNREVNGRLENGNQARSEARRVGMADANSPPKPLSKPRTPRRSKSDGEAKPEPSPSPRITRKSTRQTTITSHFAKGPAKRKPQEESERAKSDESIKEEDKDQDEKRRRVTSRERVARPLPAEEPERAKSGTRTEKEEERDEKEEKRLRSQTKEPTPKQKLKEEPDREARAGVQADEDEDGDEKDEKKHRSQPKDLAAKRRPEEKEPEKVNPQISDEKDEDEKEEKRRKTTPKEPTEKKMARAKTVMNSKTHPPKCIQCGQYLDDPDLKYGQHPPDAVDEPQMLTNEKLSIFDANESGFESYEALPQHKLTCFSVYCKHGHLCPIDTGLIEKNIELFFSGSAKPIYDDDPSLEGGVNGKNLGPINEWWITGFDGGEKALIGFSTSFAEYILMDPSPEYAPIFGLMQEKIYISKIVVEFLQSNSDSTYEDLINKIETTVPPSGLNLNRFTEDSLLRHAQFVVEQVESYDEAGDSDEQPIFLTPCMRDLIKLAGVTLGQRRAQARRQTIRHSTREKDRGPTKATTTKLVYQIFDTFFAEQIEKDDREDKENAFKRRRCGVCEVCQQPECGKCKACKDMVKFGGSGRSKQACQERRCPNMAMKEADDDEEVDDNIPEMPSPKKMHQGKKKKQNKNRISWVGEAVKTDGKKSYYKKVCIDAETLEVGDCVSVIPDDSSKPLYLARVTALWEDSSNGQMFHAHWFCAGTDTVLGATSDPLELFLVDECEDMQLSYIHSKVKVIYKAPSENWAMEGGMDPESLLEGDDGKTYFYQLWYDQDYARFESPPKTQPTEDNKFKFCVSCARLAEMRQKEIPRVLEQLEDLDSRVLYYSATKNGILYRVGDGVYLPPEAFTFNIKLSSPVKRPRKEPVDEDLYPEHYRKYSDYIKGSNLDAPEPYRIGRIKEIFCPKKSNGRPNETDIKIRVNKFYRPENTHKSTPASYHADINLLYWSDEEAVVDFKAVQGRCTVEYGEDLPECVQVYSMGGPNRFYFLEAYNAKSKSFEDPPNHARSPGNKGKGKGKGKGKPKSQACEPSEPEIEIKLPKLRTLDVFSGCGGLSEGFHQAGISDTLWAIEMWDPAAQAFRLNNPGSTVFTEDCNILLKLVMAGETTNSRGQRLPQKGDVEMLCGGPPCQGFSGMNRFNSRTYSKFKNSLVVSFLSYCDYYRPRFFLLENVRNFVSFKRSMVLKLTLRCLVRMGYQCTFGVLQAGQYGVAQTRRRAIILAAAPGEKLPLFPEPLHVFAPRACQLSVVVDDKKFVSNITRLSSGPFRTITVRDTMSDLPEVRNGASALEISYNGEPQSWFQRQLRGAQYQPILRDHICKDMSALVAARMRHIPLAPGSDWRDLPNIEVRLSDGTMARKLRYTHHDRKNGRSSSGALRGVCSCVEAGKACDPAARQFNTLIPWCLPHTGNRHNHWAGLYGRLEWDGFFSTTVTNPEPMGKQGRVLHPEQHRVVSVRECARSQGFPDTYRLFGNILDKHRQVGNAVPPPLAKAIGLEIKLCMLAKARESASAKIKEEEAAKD

Consider `CCc1c(C#N)c(S[C@@H](C(N)=O)c2ccc(Cl)cc2)nc(N2CC[C@H](O)C2)c1C#N` [Example 424, (R)-2-(4-chlorophenyl)-2-((3,5-dicyano-4-ethyl-6-((S)-3-hydroxypyrrolidin-1-yl)pyridin-2-yl)thio)acetamide], for which, in experiment [1], the EC50 is 316 to 1000 nM. Also, at DNMT1 (setting [2]), the “DNMT1 BioChemical (pIC50 category)” value is “D (Category D: ≥6.5)”.

As to `CCc1c(C#N)c(SC(C(N)=O)c2ccccc2)nc(N2CC[C@@H](N)[C@H](F)C2)c1C#N` (relative stereo) [Example 508, rel-2-((6-(trans)-4-amino-3-fluoropiperidin-1-yl)-3,5-dicyano-4-ethylpyridin-2-yl)thio)-2-phenylacetamide], the EC50 in experiment [1] was < 316 nM. The IC50 on DNMT1 (setting [3]) was < 316 nM.

As for `CCc1c(C#N)c(SC(C(N)=O)c2ccccc2)nc(N(C)CCN2CC[C@@H](O)C2)c1C#N` (stereo partly drawn) [Example 494, 2-(3,5-dicyano-4-ethyl-6-((2-((R)-3-hydroxypyrrolidin-1-yl)ethyl)(methyl)amino)pyridin-2-ylthio)-2-phenylacetamide], the EC50 in experiment [1] was < 316 nM. Moreover, the “DNMT1 BioChemical (pIC50 category)” value on DNMT1 (setting [2]) was “D (Category D: ≥6.5)”.

Regarding `CCc1c(C#N)c(SC(C(N)=O)c2ccccc2)nc(N2CCC(N3CCN(C)CC3)CC2)c1C#N` (stereo not drawn) [Example 450, 2-((3,5-dicyano-4-ethyl-6-(4-(4-methylpiperazin-1-yl)piperidin-1-yl)pyridin-2-yl)thio)-2-phenylacetamide], the EC50 in experiment [1] was < 316 nM. In addition, the “DNMT1 BioChemical (pIC50 category)” value at DNMT1 (setting [2]) was “D (Category D: ≥6.5)”.

Consider `CCc1c(C#N)c(SCc2ccc(N(C)S(C)(=O)=O)cc2)nc(N(C)CCN(C)CCOC)c1C#N` [Example 461], for which the EC50 in experiment [1] is < 316 nM. The “DNMT1 BioChemical (pIC50 category)” value at DNMT1 (setting [2]) is “D (Category D: ≥6.5)”.

Take `CCc1c(C#N)c(SC(C(N)=O)c2ccc(F)cc2)nc(N2CCC[C@H](CNCC(C)(C)C)C2)c1C#N` (stereo partly drawn) [Example 594, 2-((3,5-dicyano-4-ethyl-6-((R)-3-((neopentylamino)methyl)piperidin-1-yl)pyridin-2-yl)thio)-2-(4-fluorophenyl)acetamide]: the EC50 in experiment [1] is < 316 nM. For the same compound, the “DNMT1 BioChemical (pIC50 category)” value at DNMT1 (setting [2]) is given as “D (Category D: ≥6.5)”.

With `CCc1c(C#N)c(SC(C(N)=O)c2ccccc2)nc(N(C)CC(=O)N2CCNCC2)c1C#N` (stereo not drawn) [Example 622, 2-((3,5-dicyano-4-ethyl-6-(methyl(2-oxo-2-(piperazin-1-yl)ethyl)amino)pyridin-2-yl)thio)-2-phenylacetamide], the EC50 in experiment [1] is < 316 nM. In addition, the “DNMT1 BioChemical (pIC50 category)” value on DNMT1 (setting [2]) is “D (Category D: ≥6.5)”.

Consider `CCc1c(C#N)c(SC(C(N)=O)c2ccccc2)nc(N2CCC(C#N)CC2)c1C#N` (stereo not drawn) [Example 319, 2-((3,5-Dicyano-6-(4-cyanopiperidin-1-yl)-4-ethylpyridin-2-yl)thio)-2-phenylacetamide], for which the EC50 in experiment [1] is 316 to 1000 nM. Besides, at DNMT1 (setting [3]), the IC50 was 1000 to 31600 nM.

For `CCc1c(C#N)c(SC(C(N)=O)c2ccccc2)nc(N2CC(CC(N)=O)C2)c1C#N` (stereo not drawn) [Example 330, 2-((6-(3-(2-Amino-2-oxoethyl)azetidin-1-yl)-3,5-dicyano-4-ethylpyridin-2-yl)thio)-2-phenylacetamide], in experiment [1], the EC50 is 1000 to 31600 nM. At DNMT1 (setting [2]), the “DNMT1 BioChemical (pIC50 category)” value is recorded as “D (Category D: ≥6.5)”.

On to `CSc1c(C#N)c(SC(C(N)=O)c2ccccc2)nc(N2CCCN(C)CC2)c1C#N` (stereo not drawn) [Example 202, 2-((3,5-Dicyano-6-(4-methyl-1,4-diazepan-1-yl)-4-(methylthio)pyridin-2-yl)thio)-2-phenylacetamide], for which the EC50 in experiment [1] was 316 to 1000 nM. In addition, the IC50 at DNMT1 (setting [3]) is 316 to 1000 nM.

On to `CCc1c(C#N)c(SC(C(N)=O)c2ccccc2)nc(N(C)CC(=O)N(C)CCO)c1C#N` (stereo not drawn) [Example 606, 2-((6-((2-amino-2-oxo-1-phenylethyl)thio)-3,5-dicyano-4-ethylpyridin-2-yl)(methyl)amino)-N-(2-hydroxyethyl)-N-methylacetamide], for which, in experiment [1], the EC50 was < 316 nM. For the same compound, the “DNMT1 BioChemical (pIC50 category)” value at DNMT1 (setting [2]) is recorded as “D (Category D: ≥6.5)”.

For the compound `CCc1c(C#N)c(SCc2ccc(N3CCCS3(=O)=O)cc2)nc(N2CCC(NCC(C)(C)C)CC2)c1C#N` [Example 603, 2-((4-(1,1-dioxidoisothiazolidin-2-yl)benzyl)thio)-4-ethyl-6-(4-(neopentylamino)piperidin-1-yl)pyridine-3,5-dicarbonitrile], the EC50 in experiment [1] was > 31600 nM. The “DNMT1 BioChemical (pIC50 category)” value on DNMT1 (setting [2]) is listed as “D (Category D: ≥6.5)”.

As for `CCc1c(C#N)c(SC(C(N)=O)c2ncccc2OC)nc(N2CCCN(C)CC2)c1C#N` (stereo not drawn) [Example 209, 2-((3,5-Dicyano-4-ethyl-6-(4-methyl-1,4-diazepan-1-yl)pyridin-2-yl)thio)-2-(3-methoxypyridin-2-yl)acetamide], the EC50 in experiment [1] is 316 to 1000 nM. Moreover, the IC50 at DNMT1 (setting [3]) was 316 to 1000 nM.

Regarding `CCNC(=O)NCc1ccc(CSc2nc(N3CCCN(C)CC3)c(C#N)c(CC)c2C#N)cc1` [Example 99, 1-(4-(((3,5-Dicyano-4-ethyl-6-(4-methyl-1,4-diazepan-1-yl)pyridin-2-yl)thio)methyl)benzyl)-3-ethylurea], the EC50 in experiment [1] is 1000 to 31600 nM. In addition, the IC50 is 316 to 1000 nM at DNMT1 (setting [3]) and 316 to 1000 nM at DNMT1 (breaklight assay and/or SPA assay, repeated experimental runs, read-out: average pIC50 against DNMT1 (converted)).

Regarding `CCc1c(C#N)c(SCc2ccc(C(=O)Nc3cn[nH]c3)cc2)nc(N2CCCN(C)CC2)c1C#N` [Example 543, 4-(((3,5-dicyano-4-ethyl-6-(4-methyl-1,4-diazepan-1-yl)pyridin-2-yl)thio)methyl)-N-(1H-pyrazol-4-yl)benzamide], in experiment [1], the EC50 was > 31600 nM. Besides, the “DNMT1 BioChemical (pIC50 category)” value at DNMT1 (setting [2]) is listed as “D (Category D: ≥6.5)”.

On to `CCc1c(C#N)c(SC(C(N)=O)c2ccccc2)nc(N2CC[C@@H](NC(=O)OC(C)(C)C)[C@@H](F)C2)c1C#N` (single isomer, unassigned) [Example 534, rel-tert-butyl (cis)-1-(6-((2-amino-2-oxo-1-phenylethyl)thio)-3,5-dicyano-4-ethylpyridin-2-yl)-3-fluoropiperidin-4-yl)carbamate], for which, in experiment [1], the EC50 is < 316 nM. The IC50 at DNMT1 (setting [3]) is < 316 nM.

Take `CCc1c(C#N)c(SC(C(N)=O)c2ccccc2)nc(N2CCC(N3CC(OC)C3)CC2)c1C#N` (stereo not drawn) [Example 697, 2-((3,5-dicyano-4-ethyl-6-(4-(3-methoxyazetidin-1-yl)piperidin-1-yl)pyridin-2-yl)thio)-2-phenylacetamide]: the EC50 in experiment [1] was < 316 nM. Moreover, the “DNMT1 BioChemical (pIC50 category)” value on DNMT1 (setting [2]) is listed as “D (Category D: ≥6.5)”.

For `CCc1c(C#N)c(SC(C(N)=O)c2ccccc2)nc(N2CCCC(CNC)C2)c1C#N` (stereo not drawn) [Example 566, 2-((3,5-dicyano-4-ethyl-6-(3-((methylamino)methyl)piperidin-1-yl)pyridin-2-yl)thio)-2-phenylacetamide], in experiment [1], the EC50 is < 316 nM. The “DNMT1 BioChemical (pIC50 category)” value at DNMT1 (setting [2]) is “D (Category D: ≥6.5)”.

On to `CCc1c(C#N)c(SCc2ccc(N(C)S(C)(=O)=O)cc2)nc(N2CCC(NCCO)CC2)c1C#N` [Example 692, N-(4-(((3,5-dicyano-4-ethyl-6-(4-((2-hydroxyethyl)amino)piperidin-1-yl)pyridin-2-yl)thio)methyl)phenyl)-N-methylmethanesulfonamide], for which the EC50 in experiment [1] is < 316 nM. Also, the “DNMT1 BioChemical (pIC50 category)” value at DNMT1 (setting [2]) is reported as “D (Category D: ≥6.5)”.
